This assay concerns the target T1, STK17A (DRAK1) (Homo sapiens, UniProt Q9UEE5).
T1 construct: purchased Thermo Fisher Scientific (Life Technologies) SelectScreen
Put plainly: SelectScreen LanthaScreen. The class given is binding. The settings on record: read-out: % displacement. The procedure, abridged:
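Percent values come from Thermo SelectScreen profiling of NU5455, combining activity and binding assays. CSF1R was run in Z'LYTE format at Km app ATP, and CAMK1 in Adapta format with ATP listed at 10.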

T1 sequence (Q9UEE5 whole entry): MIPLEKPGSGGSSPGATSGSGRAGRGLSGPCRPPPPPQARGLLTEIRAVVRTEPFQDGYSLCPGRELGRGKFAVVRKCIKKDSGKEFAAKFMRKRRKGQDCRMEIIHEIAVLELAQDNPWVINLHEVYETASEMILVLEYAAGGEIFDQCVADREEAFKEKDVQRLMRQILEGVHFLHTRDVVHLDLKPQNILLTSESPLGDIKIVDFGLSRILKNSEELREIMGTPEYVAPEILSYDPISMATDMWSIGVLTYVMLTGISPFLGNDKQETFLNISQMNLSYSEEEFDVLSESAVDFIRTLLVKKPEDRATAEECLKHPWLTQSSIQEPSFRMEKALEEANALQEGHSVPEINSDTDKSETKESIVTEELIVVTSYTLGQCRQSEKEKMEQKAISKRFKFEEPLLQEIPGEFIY

Take `CN(C(=O)CN1CCOCC1)c1ccc2sc3c(-c4cccc5c(=O)cc(N6CC7CCC(C6)O7)oc45)cccc3c2c1` [NU5455]: the inhibition at 1 µM is -6.6%.

The values above are taken from article PMC6934184, “Selective DNA-PKcs inhibition extends the therapeutic index of localized radiotherapy and chemotherapy” (The Journal of Clinical Investigation, 2019).
